What was measured:
Btk = Btk (Homo sapiens (Human), UniProt Q06187); assay: Bruton's Tyrosine Kinase (Btk) inhibition assay (FRET BTK); format: biochemical
Ramos cells = assay: Inhibition of B-cell activation, B cell FLIPR assay in Ramos cells (anti-IgM stimulated calcium increase); format: cell-based; conditions: Homo sapiens, anti-IgM stimulated Ca2+ signaling
Source text: Inhibition of B-Cell Activation—B Cell FLIPR Assay in Ramos Cells
The B cell FLIPR assay is a cell based functional method of determining the effect of potential inhibitors of the intracellular calcium increase from stimulation by an anti-IgM antibody. Ramos cells (human Burkitt's lymphoma cell line. ATCC-No. CRL-1596) were cultivated in Growth Media (described below). One day prior to assay, Ramos cells were resuspended in fresh growth media (same as above) and set at a concentration of 0.5×10^6/mL in tissue culture flasks. On day of assay, cells are counted and set at a concentration of 1×10^6/mLl in growth media supplemented with 1 μM FLUO-3AM (TefLabs Cat-No. 0116, prepared in anhydrous DMSO and 10% Pluronic acid) in a tissue culture flask, and incubated at 37° C. (4% CO2) for one h. To remove extracellular dye, cells were collected by centrifugation (5 min, 1000 rpm), resuspended in FLIPR buffer (described below) at 1×10^6 cells/mL and then dispensed into 96-well poly-D-lysine coated black/clear plates (BD Cat-No. 356692) at 1×10^5 cells per well. Test compounds were added at various concentrations ranging from 100 μM to 0.03 μM (7 concentrations, details below), and allowed to incubate with cells for 30 min at RT. Ramos cell Ca^2+ signaling was stimulated by the addition of 10 μg/mL anti-IgM (Southern Biotech, Cat-No. 2020-01) and measured on a FLIPR (Molecular Devices, captures images of 96 well plates using a CCD camera with an argon laser at 480 nm excitation).
Growth Medium: RPMI 1640 medium with L-glutamine (Invitrogen, Cat-No. 61870-010), 10% Fetal Bovine Serum (FBS, Summit Biotechnology Cat-No. FP-100-05); 1 mM Sodium Pyruvate (Invitrogen Cat. No. 11360-070).
FLIPR buffer: HBSS (Invitrogen, Cat-No. 141175-079), 2 mM CaCl2 (Sigma Cat-No. C-4901), HEPES (Invitrogen, Cat-No. 15630-080), 2.5 mM Probenecid (Sigma, Cat-No. P-8761), 0.1% BSA (Sigma, Cat-No. A-7906), 11 mM Glucose (Sigma, Cat-No. G-7528)
Compound Dilution Details:
In order to achieve the highest final assay concentration of 100 μM, 24 μL of 10 mM compound stock solution (made in DMSO) is added directly to 576 μL of FLIPR buffer. The test compounds are diluted in FLIPR Buffer (using Biomek 2000 robotic pipettor) resulting in the following dilution scheme: vehicle, 1.00×10^−4 M, 1.00×10^−5, 3.16×10^−6, 1.00×10^−6, 3.16×10^−7, 1.00×10^−7, 3.16×10^−8.
Intracellular increases in calcium were reported using a max-min statistic (subtracting the resting baseline from the peak caused by addition of the stimulatory antibody using a Molecular Devices FLIPR control and statistic exporting software. The IC50 was determined using a non-linear curve fit (GraphPad Prism software).

[1] = tested on: B cells in human whole blood (CD69 expression); assay: Inhibition of B cell activation in whole blood measured by CD69 expression; format: cell-based; conditions: anti-IgM stimulation, CD69-positive CD20-positive cells
Method: Inhibition of B Cell Activation in Whole Blood Measured by CD69 Expression
A procedure to test the ability of Btk inhibitors to suppress B cell receptor-mediated activation of B cells in human blood is as follows:
Human whole blood (HWB) is obtained from healthy volunteers, with the following restrictions: 24 hr drug-free, non-smokers. Blood is collected by venipuncture into Vacutainer tubes anticoagulated with sodium heparin. Test compounds are diluted to ten times the desired starting drug concentration in PBS (20×), followed by three-fold serial dilutions in 10% DMSO in PBS to produce a nine point dose-response curve. 5.5 μl of each compound dilution is added in duplicate to a 2 ml 96-well V bottom plate (Analytical Sales and Services, #59623-23); 5.5 μl of 10% DMSO in PBS is added to control and no-stimulus wells. HWB (100 μl) is added to each well, and after mixing the plates are incubated at 37 C, 5% CO2, 100% humidity for 30 minutes. Goat F(ab′)2 anti-human IgM (Southern Biotech, #2022-14) (10 μl of a 500 μg/ml solution, 50 μg/ml final concentration) is added to each well (except the no-stimulus wells) with mixing and the plates are incubated for an additional 20 hours.
At the end of the 20 hour incubation, samples are incubated with florescent-probe-labeled anti-bodies (15 μl PE Mouse anti-Human CD20, BD Pharmingen, #555623, and/or 20 ul APC Mouse anti-Human CD69, BD Pharmingen #555533) for 30 minutes, at 37 C, 5% CO2, 100% humidity. Included are induced control, unstained and single stains for compensation adjustments and initial voltage settings. Samples are then lysed with 1 ml of 1× Pharmingen Lyse Buffer (BD Pharmingen #555899), and plates are centrifuged at 1800 rpm for 5 minutes. Supernatants are removed via suction and the remaining pellets are lysed again with another 1 ml of 1× Pharmingen Lyse Buffer, and plates are spun down as before. Supernatants are aspirated and remaining pellets are washed in FACs buffer (PBS+1% FBS). After a final spin, the supernantants are removed and pellets are resuspended in 180 μl of FACs buffer. Samples are transferred to a 96 well plate suitable to be run on the HTS 96 well system on the BD LSR II flow cytometer.
Using appropriate excitation and emission wavelengths for the fluorophores used, data are acquired and percent positive cell values are obtained using Cell Quest Software. Results are initially analyzed by FACS analysis software (Flow Jo). […] The IC50 values are calculated using XLfit software version 3, equation 201.

Sequence of Btk (Q06187 whole entry): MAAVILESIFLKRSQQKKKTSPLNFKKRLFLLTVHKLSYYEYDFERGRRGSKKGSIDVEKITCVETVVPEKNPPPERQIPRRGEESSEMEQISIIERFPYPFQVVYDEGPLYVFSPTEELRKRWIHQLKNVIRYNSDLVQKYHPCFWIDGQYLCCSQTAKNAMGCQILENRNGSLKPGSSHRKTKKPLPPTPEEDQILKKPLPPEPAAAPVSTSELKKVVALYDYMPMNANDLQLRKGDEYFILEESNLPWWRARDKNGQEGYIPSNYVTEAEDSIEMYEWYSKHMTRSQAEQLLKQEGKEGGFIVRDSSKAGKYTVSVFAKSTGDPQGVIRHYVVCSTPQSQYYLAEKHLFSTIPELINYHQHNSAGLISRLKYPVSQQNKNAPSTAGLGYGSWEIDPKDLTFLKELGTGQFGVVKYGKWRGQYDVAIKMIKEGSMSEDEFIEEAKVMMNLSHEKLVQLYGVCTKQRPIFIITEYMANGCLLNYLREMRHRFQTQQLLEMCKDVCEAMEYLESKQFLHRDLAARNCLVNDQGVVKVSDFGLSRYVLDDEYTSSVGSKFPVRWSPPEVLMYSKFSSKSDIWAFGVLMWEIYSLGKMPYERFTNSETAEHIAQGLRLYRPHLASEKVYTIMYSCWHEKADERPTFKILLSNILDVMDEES

| Structure (SMILES) | IC50 (Btk) [nM] | IC50 (Ramos cells) [nM] | IC50 [1] [nM] |
| --- | --- | --- | --- |
| Cn1cc(-c2cccc(-n3ncc4cc(C(C)(C)C)ccc4c3=O)c2CO)nc1C(N)=O [Compound I-1, 4-[3-(6-tert-Butyl-1-oxo-1H-phthalazin-2-yl)-2-hydroxymethyl-phenyl]-1-methyl-1H-imidazole-2-carboxylic acid amide] | 50 | 11200 |  |
| CC(C)(C)c1ccc2c(=O)n(-c3cccc(-c4nc(C(N)=O)cs4)c3CO)ncc2c1 [Compound I-2, 2-[3-(6-tert-Butyl-1-oxo-1H-phthalazin-2-yl)-2-hydroxymethyl-phenyl]-thiazole-4-carboxylic acid amide] | 281 | 1600 |  |
| CC(C)(C)c1cc(F)c2c(=O)n(-c3cccc(-n4cc(C(N)=O)c5cccnc54)c3CO)ncc2c1 [Compound I-15, 1-[3-(6-tert-Butyl-8-fluoro-1-oxo-1H-phthalazin-2-yl)-2-hydroxymethyl-phenyl]-1H-pyrrolo[2,3-b]pyridine-3-carboxylic acid amide] | 3.2 | 40 | 759 |
| Cn1cc(-c2ccnc(-n3ncc4cc(C(C)(C)C)cc(F)c4c3=O)c2CO)cc1C(N)=O [Compound I-16, 4-[2-(6-tert-Butyl-8-fluoro-1-oxo-1H-phthalazin-2-yl)-3-hydroxymethyl-pyridin-4-yl]-1-methyl-1H-pyrrole-2-carboxylic acid amide] | 20 | 270 | 1430 |

From patent US8729078B2, “Inhibitors of bruton's tyrosine kinase” (Hoffmann-La Roche Inc., priority 2011, dated 2014)
